The text below walks through data of patent publication US20260199483A1 (Bright Angel Therapeutics Inc., priority 2022, published 2026).

The structures appear in SMILES notation. In brackets after ≈: the same amount, converted by molar mass. A value given as a limit tells only on which side of the number the result lay.

Series [1] has as its target T1, purified recombinant Yck2 (Candida albicans, UniProt A0A1D8PKB4).
T1 construct: Yck2 residues 37-345 were PCR amplified from C. albicans genomic DNA; His6 (N); TEV protease site (N); made in house; host or cells: E. coli BL21(DE3)-Gold
Description: HotSpot kinase assay. The class given is biochemical, C. albicans.

The subject of the next series is CaCi2. Put plainly: Antifungal sensitivity testing (broth microdilution MIC). The conditions noted are these: CaCi2, 96-well broth microdilution, compounds in DMSO. The class given is cell-based. The method, then:
Minimum inhibitory concentrations (MICs) were determined in flat bottom, 96-well plate format using a modified broth microdilution protocol as previously described (Singh et al., PLoS Pathog. 5, e1000532 (2009); LaFayette et al., PLoS Pathog. 6, 79-80 (2010)). Compounds were formulated in dimethyl sulfoxide (DMSO, Sigma-Aldrich Co.). Each compound was tested in duplicate in at least two independent experiments.
In general terms: In broth dilution the organism is exposed to a series of concentrations in liquid medium.

Series [2] can be described thus: Mammalian cell toxicity (Cell Titer-Glo). The class given is cell-based. The conditions noted are these: human; HepG2 cells, 48 h incubation, Cell Titer-Glo luminescence. As to the method:
HepG2 cells were seeded overnight at 500 cells/well in 384-well plate, then incubated with compounds (10-point concentration titration) for 48 h. Cell Titer-Glo® reagent ([…]) was added to each well and after 10-minute incubation at room temperature the luminescent signal was measured using an Envision plate reader (Perkin Elmer).

T1 sequence (A0A1D8PKB4 entry or part of it): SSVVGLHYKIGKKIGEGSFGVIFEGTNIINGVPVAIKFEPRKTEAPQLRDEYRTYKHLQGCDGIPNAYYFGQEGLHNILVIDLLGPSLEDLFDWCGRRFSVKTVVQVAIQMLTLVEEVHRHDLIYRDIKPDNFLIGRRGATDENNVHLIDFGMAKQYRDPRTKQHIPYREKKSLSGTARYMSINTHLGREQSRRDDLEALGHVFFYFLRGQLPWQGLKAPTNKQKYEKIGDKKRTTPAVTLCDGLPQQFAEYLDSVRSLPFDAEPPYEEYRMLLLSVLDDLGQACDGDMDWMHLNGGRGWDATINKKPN

Regarding `OC(CNCCOc1cccc2c(-c3ccncc3)c(-c3ccc(F)cc3)nn12)(Cn1cncn1)c1ccc(F)cc1F` (stereo not drawn) [Compound I-153, 2-(2,4-difluorophenyl)-1-((2-((2-(4-fluorophenyl)-3-(pyridin-4-yl)pyrazolo[1,5-a]pyridin-7-yl)oxy)ethyl)amino)-3-(1H-1,2,4-triazol-1-yl)propan-2-ol], the IC50 in series [1] worked out at 48.7 nM. The same compound registered an MIC50 against CaCi2 of 1.56 µM (≈ 0.914 µg/mL). Further, the IC50 at 48 h in series [2] is above 20 µM.
On to `Nc1nccc(-c2c(-c3ccc(F)cc3)ncn2C2CCN(CCCn3c4c(c5cccc(Cl)c53)CCNC4)CC2)n1` [Compound I-231, 4-(1-(1-(3-(8-chloro-1,2,3,4-tetrahydro-9H-pyrido[3,4-b]indol-9-yl)propyl)piperidin-4-yl)-4-(4-fluorophenyl)-1H-imidazol-5-yl)pyrimidin-2-amine], for which the IC50 in series [1] came out at 4.13 nM. This compound showed an MIC50 in the series with CaCi2 above 25 µM. This compound yielded an IC50 at 48 h in series [2] of 1.84 µM.
Take `Cn1cc(-c2ccncc2COC(=O)C2CCN(CC(O)(Cn3cncn3)c3ccc(F)cc3F)CC2)c(-c2ccc(F)cc2)n1` (stereo not drawn) [Compound I-239, (4-(3-(4-fluorophenyl)-1-methyl-1H-pyrazol-4-yl)pyridin-3-yl)methyl 1-(2-(2,4-difluorophenyl)-2-hydroxy-3-(1H-1,2,4-triazol-1-yl)propyl)piperidine-4-carboxylate]: the IC50 in series [1] worked out at 185 nM. The MIC50 with CaCi2 amounted to 0.195 µM (≈ 0.123 µg/mL). The compound also gave an IC50 at 48 h in series [2] above 20 µM.
On to `O=C(NCC(O)(Cn1cncn1)c1ccc(F)cc1F)c1ccc2c(-c3ccncc3)c(-c3ccc(F)cc3)nn2c1` (stereo not drawn) [Compound I-115, N-(2-(2,4-difluorophenyl)-2-hydroxy-3-(1H-1,2,4-triazol-1-yl)propyl)-2-(4-fluorophenyl)-3-(pyridin-4-yl)pyrazolo[1,5-a]pyridine-6-carboxamide], for which the IC50 in series [1] worked out at 3.67 nM. The compound further displayed an MIC50 against CaCi2 of 1.27 µM (≈ 0.723 µg/mL). In addition, in series [2], the IC50 at 48 h is above 20 µM.

Usually IC50 stands for the concentration that inhibits the measured activity by half. By MIC50 is commonly meant an inhibitory concentration at the 50% level, which refers to growth in some studies and to a panel of isolates in others. Read a high MIC50 as weaker potency.
